Where two headings read alike, the source gives them in different places.

Holding throughout (type): cell-based
Test [1] concerns anaplastic large cell lymphoma cells (Karpas299). Put plainly: In vitro potency (CellTiter-Glo, 96 h) on Karpas299. Conditions: Homo sapiens, KARPAS-299, 96 h, read-out: Karpas299 IC50. As to the method: (§1) In vitro potency was assessed on multiple cancer cell lines. All cell lines were authenticated by STR profiling at IDEXX Bioresearch and cultured for no more than 2 months after resuscitation. Cells cultured in log-phase growth were seeded for 24 hours in 96-well plates containing […] RPMI 1640 supplemented with 20% FBS. Serial dilutions of antibody-drug conjugates in cell culture media were prepared at 4x working concentrations, and 50 μL of each dilution was added to the 96-well plates. Following addition of test articles, cells were incubated with test articles for 4 days at […]. After 96 hours, growth inhibition was assessed by CellTiterGlo® (Promega, Madison, WI) and luminescence was measured on a plate reader.
(§2) Cell viability was determined by CellTiter-Glo staining after 96h exposure to ADC. ND=Not Determined. In the following tables, “Ex_” refers to a drug linker number. For example, “Ag4-Ex_4a” refers to a conjugate of an Ag4 antibody with drug linker 4a.
(In ATP-based viability assays light output follows the ATP content of the culture.)

Test [2] has as its system renal carcinoma cells (786-O). Description: In vitro potency (CellTiter-Glo, 96 h) on 786-O. Conditions: Homo sapiens, 786-0, 96 h, read-out: 786-O IC50. As to the method:
as §1, §2

In test [3] the test system is anaplastic large cell lymphoma cells (DELBVR). Description: In vitro potency (CellTiter-Glo, 96 h) on DELBVR. As to conditions: 96 h, read-out: DELBVR IC50. How it is done: as §1, §2
Test [4] has as its system Hodgkin's lymphoma cells (L540cy). Description: In vitro potency (CellTiter-Glo, 96 h) on L540cy. Conditions: L540cy, 96 h, read-out: L540cy IC50. How it is done: as §1, §2
The test system of test [5] is B-lymphocyte cancer cells (SU-DHL4). Description: In vitro potency (CellTiter-Glo, 96 h) on SU-DHL4. As to conditions: Homo sapiens, SU-DHL-4, 96 h, read-out: SU-DHL-4 IC50. How it is done: as §1, §2
In test [6] the test system is acute myeloid leukemia cells (MOLM-13). Put plainly: In vitro potency (CellTiter-Glo, 96 h) on MOLM-13. Conditions: Homo sapiens, MOLM-13, 96 h, read-out: MOLM-13 IC50. As to the method:
as §1, §2

The subject of test [7] is breast cancer cells (MDA-MB-231). Put plainly: In vitro potency (CellTiter-Glo, 96 h) on MDA-MB-231. As to conditions: Homo sapiens, MDA-MB-231, 96 h, read-out: MDAMB 231 IC50. How it is done:
as §1, §2

Test [8] deals with anaplastic large cell lymphoma cells (DEL). Put plainly: In vitro potency (CellTiter-Glo, 96 h) on DEL. Conditions: 96 h, read-out: DEL IC50. How it is done: as §1, §2
Test [9] can be described thus: In vitro potency (CellTiter-Glo, 96 h) on Ls174T. Conditions: Homo sapiens, LS174T, read-out: Ls174T IC50. How it is done: as §1, §2
Test [10] relates to pancreatic cancer cells (BxPC3). Put plainly: In vitro potency (CellTiter-Glo, 96 h) on BxPC3. Conditions: Homo sapiens, BXPC-3, 96 h, read-out: BxPC3 IC50. As to the method:
as §1, §2

Setting [11] is: CPT free drugs, CellTiter-Glo after 96 h exposure.

On to `CC[C@@]1(O)C(=O)OCc2c1cc1n(c2=O)Cc2c-1nc1cc(F)c(OC)c(Br)c1c2CN` [Compound 2ad], for which the IC50 amounted to 7 nM in test [1] (setting [11]); 9 nM in test [2] (setting [11]); 1 nM in test [3] (setting [11]); 4 nM in test [4] (setting [11]); 4 nM in [5] (setting [11]); 5 nM in test [6] (setting [11]). The half-maximal inhibitory concentration (IC50) in test [7] (setting [11]) came to 15 nM; in test [8] (setting [11]), 1 nM; in test [9] (setting [11]) it was 17 nM; in [10] (setting [11]), 22 nM.
With `CC[C@@]1(O)C(=O)OCc2c1cc1n(c2=O)Cc2c-1nc1cc(Br)c(OC)c(F)c1c2CN` [Compound 2ah], the IC50 amounted to 65 nM in test [1] (setting [11]); 108 nM in test [2] (setting [11]); 11 nM in test [3] (setting [11]); 54 nM in test [4] (setting [11]); 29 nM in [5] (setting [11]); 125 nM in test [6] (setting [11]). The IC50 in test [7] (setting [11]) was found to be 149 nM; in [8] (setting [11]), 12 nM; in [9] (setting [11]), 152 nM; in test [10] (setting [11]), 199 nM.
As for `CC[C@@]1(O)C(=O)OCc2c1cc1n(c2=O)Cc2c-1nc1cc(F)c(C)c(/C=C/c3ccc(OC)cc3)c1c2CN` [Compound 2ai], the IC50 was determined as 47 nM in [1] (setting [11]); 64 nM in test [2] (setting [11]); 5 nM in [3] (setting [11]); 47 nM in test [4] (setting [11]); 13 nM in test [5] (setting [11]); 34 nM in test [6] (setting [11]). In addition, the IC50 in test [7] (setting [11]) turned out to be 79 nM; in test [8] (setting [11]), 6 nM; in [9] (setting [11]) it was 64 nM; in test [10] (setting [11]) it was 57 nM.
For `C/C=C/c1c(C)c(F)cc2nc3c(c(CN)c12)Cn1c-3cc2c(c1=O)COC(=O)[C@]2(O)CC` [Compound 2aj], the IC50 in test [1] (setting [11]) was 2 nM; in test [2] (setting [11]), 2 nM; in [3] (setting [11]), 0.3 nM; in [4] (setting [11]), 1 nM; in test [5] (setting [11]), 1 nM; in test [6] (setting [11]), 1 nM. Also, the IC50 in test [7] (setting [11]) was 5 nM; in test [8] (setting [11]) it was 0.3 nM; in [9] (setting [11]), 5 nM; in [10] (setting [11]) it was 3 nM.
With `CC[C@@]1(O)C(=O)OCc2c1cc1n(c2=O)Cc2c-1nc1cc3c(cc1c2CN)COC3` [Compound 2ak], the IC50 in test [6] was 129 nM.
With `C=C(C)c1c(C)c(F)cc2nc3c(c(CN)c12)Cn1c-3cc2c(c1=O)COC(=O)[C@]2(O)CC` [Compound 2al], the IC50 in test [1] worked out at 4 nM; in [2] it was 4 nM; in [3] it was 1 nM; in [4], 2 nM; in test [5], 1 nM; in test [6], 2 nM. Moreover, the half-inhibitory concentration (IC50) was 9 nM in test [7], 1 nM in test [8], 11 nM in [9] (96 h) and 7 nM in test [10].
Turning to `C=Cc1c(C)c(F)cc2nc3c(c(CN)c12)Cn1c-3cc2c(c1=O)COC(=O)[C@]2(O)CC` [Compound 2am, (S)-11-(aminomethyl)-4-ethyl-8-fluoro-4-hydroxy-9-methyl-10-vinyl-1,12-dihydro-14H-pyrano[3′,4′:6,7]indolizino[1,2-b]quinoline-3,14(4H)-dione], the IC50 is 2 nM in [1]; 2 nM in [2]; 0.3 nM in test [3]; 1 nM in [4]; 1 nM in test [5]; 2 nM in [6]. Further, the IC50 is 5 nM in [7], 0.3 nM in test [8], 5 nM in test [9] (96 h) and 4 nM in [10].
Take `CC[C@@]1(O)C(=O)OCc2c1cc1n(c2=O)Cc2c-1nc1cc(F)c(F)c(F)c1c2CN` [Compound 2ap]: the IC50 stood at 5 nM in test [1] (setting [11]); 8 nM in test [2] (setting [11]); 1 nM in [3] (setting [11]); 2 nM in test [4] (setting [11]); 2 nM in [5] (setting [11]); 5 nM in [6] (setting [11]). The 50% inhibitory concentration (IC50) in test [7] (setting [11]) stood at 13 nM; in test [8] (setting [11]), 1 nM; in [9] (setting [11]) it was 4 nM; in [10] (setting [11]), 14 nM.
On to `CC[C@@]1(O)C(=O)OCc2c1cc1n(c2=O)Cc2c-1nc1cc3c(cc1c2CNC[C@H](O)CN1CCCCC1)OCO3` [Compound 7aa], for which the IC50 amounted to 63 nM in [1]; 131 nM in [2]; 19 nM in test [3]; 51 nM in [4]; 19 nM in test [5]; 69 nM in [6]. Moreover, the IC50 came out at 228 nM in [7], 17 nM in [8], 188 nM in test [9] (96 h) and 66 nM in [10].
`CC[C@@]1(O)C(=O)OCc2c1cc1n(c2=O)Cc2c-1nc1cc3c(cc1c2CNCCCN1CCN(C)CC1)OCO3` [Compound 7h]: the 50% inhibitory concentration (IC50) came to 57 nM in test [1]; 44 nM in [2]; 6 nM in test [3]; 23 nM in test [4]; 21 nM in test [5]; 93 nM in test [6]. Further, the IC50 stood at 67 nM in test [7], 5 nM in [8], 40 nM in test [9] (96 h) and 43 nM in test [10].
`CC[C@@]1(O)C(=O)OCc2c1cc1n(c2=O)Cc2c-1nc1cc3c(cc1c2CNCC(O)CN1CCOCC1)OCO3` (some centres unmarked) [Compound 7i]: the IC50 in test [1] is 84 nM; in [2], 118 nM; in test [3], 17 nM; in [4], 48 nM; in test [5], 32 nM; in test [6], 183 nM. Also, the IC50 in test [7] stood at 183 nM; in [8], 9 nM; in test [9] (96 h), 110 nM; in test [10] it was 57 nM.
Regarding `CC[C@@]1(O)C(=O)OCc2c1cc1n(c2=O)Cc2c-1nc1cc3c(cc1c2CNC[C@H](O)CO)OCO3` [Compound 7n], the IC50 is 57 nM in [1]; 66 nM in test [2]; 6 nM in [3]; 23 nM in [4]; 21 nM in [5]; 137 nM in [6]. Also, the half-maximal inhibitory concentration (IC50) was determined as 96 nM in [7], 5 nM in [8], 39 nM in test [9] (96 h) and 47 nM in [10].
In the case of `CC[C@@]1(O)C(=O)OCc2c1cc1n(c2=O)Cc2c-1nc1cc3c(cc1c2CNC1CCN(C)CC1)OCO3` [Compound 7w], the half-inhibitory concentration (IC50) in [1] is 8 nM; in test [2], 15 nM; in test [3] it was 2 nM; in [4], 6 nM; in [5], 6 nM; in test [6] it was 26 nM. For the same compound, the IC50 in test [7] stood at 26 nM; in [8], 2 nM; in test [9] (96 h), 16 nM; in test [10] it was 13 nM.
Consider `CC[C@@]1(O)C(=O)OCc2c1cc1n(c2=O)Cc2c-1nc1cc3c(cc1c2CNC[C@@H](O)CN1CCCCC1)OCO3` [Compound 7z], for which the 50% inhibitory concentration (IC50) in [1] is 150 nM; in test [2] it was 123 nM; in test [3], 16 nM; in [4], 48 nM; in [5], 39 nM; in test [6], 143 nM. Besides, the half-inhibitory concentration (IC50) in test [7] came to 306 nM; in test [8], 17 nM; in test [9] (96 h), 79 nM; in [10] it was 127 nM.
For the compound `CC[C@@]1(O)C(=O)OCc2c1cc1n(c2=O)Cc2c-1nc1cc3c(cc1c2CNC(C)=O)OCO3` [Compound 12b], the IC50 in [1] was found to be 8 nM; in [2] it was 12 nM; in [3] it was 1 nM; in test [4] it was 4 nM; in test [5], 1 nM; in test [6] it was 3 nM. For the same compound, the values for the half-maximal inhibitory concentration (IC50) in [7], in test [9] (96 h) and in [10] were 28 nM, 22 nM and 11 nM, respectively.

As a reminder, the IC50 is the point on the concentration scale where inhibition reaches its midpoint.

For the origin of these results see US20230381321A1, “CAMPTOTHECIN CONJUGATES” (priority 2022, published 2023).
